Data taken from patent EP1891948A1, “Treatment of neurological and neuropsychological disorders” (Probiodrug AG, priority 2000, dated 2002).

System: WistarF/Han (WF) rats
Assay: Social interaction (SI) test of anxiety, combined i.c.v. treatment (Example 3)
Assay type: in vivo
Details: isoleucyl thiazolidine alone 5pmol-500nmol, Fig. 7
Description: Animals. Male WistarF/Han (WF) rats (Central Animal Laboratory, Hannover Medical School, Hannover, Germany, see http://www.mh-hannover.de/institut/tierlabor/wf.htm for details), weighing 330-370g, were housed in a sound-proof, temperature controlled (24.0±0.5°C) room under specific pathogen free conditions with a 12/12h dark/light cycle (lights on at 07.00 with illumination level of 80 Lux). Food (Altromin lab chow pellets) and tap water were available ad libitum. Under ketamine/xylasine (100/5 mg/kg, i.p.) anesthesia, the rats were fixed in a Kopf stereotaxic frame and implanted with cannulae (Plastic One, Inc., Roanoke, VA, USA) above the lateral ventricle. […]
Animals were randomly divided into two sets of four experimental groups (n=5-6/group), which completed different consecutive SI test of anxiety. […] The time spent in active social interaction (SI-time), 1h and 12h food-intake were measured. […]
Social interaction (SI) test. […] Behavior was monitored using a video camera placed above the field inside the testing/isolation box. The SI behavior of both rats was recorded on-line from a monitor placed outside on top of the box. The following parameters were scored by an observer (HPN) unaware of the substrain of rats: duration of time spent in sniffing, following, crawling under and over other rats, but not passive body contact (resting, sleeping). […]

SMILES: CCC(C)C(N)C(=O)N1CCSC1 (stereo not shown) [isoleucyl thiazolidine]
- time spent in active social interaction (SI-time): "bell-shaped" dose-dependent anxiolytic-like effects
